Assay [1] relates to A549 (Human lung adenocarcinoma epithelial cell line). Briefly: MTT cell proliferation assay in A549 cell line. In kind it is cell-based. The conditions noted are these: A549 cells, treated 72 hr or 96 hr. As for the experimental part:
(§1) Exemplary assays include MTT cell proliferation assay in A549 (Human lung adenocarcinoma epithelial cell line), and HL60 (Human promyelocytic leukemia cells) cell lines. Suitable cells include those derived through cell culture from patient samples (cancer cell lines) as well as cells derived using routine molecular biology techniques, e.g., retroviral transduction, transfection, mutagenesis, etc.
(§2) In an exemplary MTT assay, approximately 1,000 cells (A549 or HL60) are plated into each well of a 96-well plate. Cells are treated in duplicate with test compounds in a dose titration manner, typically 3-fold dilutions, eleven points per assay, with starting concentrations of 20 or 10 μM) or with DMSO-control (0.2% final concentration). Cells are treated for 72 hours (hr) or 96 hr before being analyzed by the MTT method. After 72 hr or 96 hr of compound treatment, 10 μL of MTT dye solution (5 mg/mL MTT dye [Sigma #M2128] in water) is added to each well and incubated at 37° C. for 2 hr. Following incubation, 100 μL of lysis buffer (10% SDS, 0.01 N HCl in water) is added to each well and incubated overnight at 37° C. The plate is analyzed the following day using a colorimetric plate reader at 595 nm wavelength. Values obtained for treatment samples are normalized to control samples.

Assay [2] concerns HL60 (Human promyelocytic leukemia cells). Briefly: MTT cell proliferation assay in HL60 cell line. The assay is classed as cell-based. To be noted: HL-60, treated 72 hr or 96 hr. As for the experimental part:
as §1, §2
A general note: Tetrazolium dyes change colour on reduction, which living cells bring about.

Consider `CN(C)[C@@H]1CCN(c2ccc3c(=O)c(S(=O)(=O)N(C)C)cn(-c4nccs4)c3n2)C1`, for which the results for the IC50 in assay [1] and in assay [2] were below 3 µM and 3 to 10 µM, respectively.

For `O=C(O)c1cn(-c2nccs2)c2nc(N3CCC(O)C3)cnc2c1=O` (centres unmarked), the concentration for half-maximal inhibition (IC50) in assay [1] and in assay [2] was above 10 µM in each case.

With `CN(C)[C@@H]1CCN(c2ccc3c(=O)c(S(=O)(=O)N4CCCCC4)cn(-c4nccs4)c3n2)C1`, the IC50 in assay [1] and in assay [2] was below 3 µM in each case.

As to `C[C@@H]1CN(c2ccc3c(=O)c(S(=O)(=O)N4CCCCC4)cn(-c4nccs4)c3n2)CCN1`, the IC50 in assay [1] and in assay [2] was below 3 µM throughout.

With `O=C(O)c1cn(-c2nccs2)c2nc(N3CCN(C4CCCCC4)CC3)cnc2c1=O`, the IC50 in assay [1] and in assay [2] was above 10 µM each time.

Turning to `CN(C)S(=O)(=O)c1cn(-c2nccs2)c2nc(N3CC[C@@H](N)C3)ccc2c1=O`, the IC50 in assay [1] and in assay [2] was below 3 µM throughout.

For the compound `CN(C)S(=O)(=O)c1cn(-c2nccs2)c2nc(N3CCCC3)ccc2c1=O`, the figures for the IC50 in assay [1] and in assay [2] were below 3 µM and above 10 µM, respectively.

Consider `CCN(CC)C1CCN(c2ccc3c(=O)c(S(=O)(=O)N4CCCCC4)cn(-c4nccs4)c3n2)C1` (centres unmarked), for which the IC50 in assay [1] and in assay [2] was below 3 µM in each case.

With `COC[C@@H]1CCCN1c1ccc2c(=O)c(S(=O)(=O)N(C)C)cn(-c3nccs3)c2n1`, the IC50 in assay [1] and in assay [2] was above 10 µM each time.

`C[C@@H]1CN(c2ccc3c(=O)c(S(=O)(=O)N4CCCCC4)cn(-c4nccs4)c3n2)C[C@H](C)N1`: the 50% inhibitory concentration (IC50) in assay [1] and in assay [2] was below 3 µM each time.

`O=C(O)c1cn(-c2nccs2)c2nc(N3CCN(c4ccccn4)CC3)cnc2c1=O`: the IC50 in assay [1] and in assay [2] was above 10 µM in each case.

With `CN1CCN(c2ccc3c(=O)c(S(=O)(=O)N4CCCCC4)cn(-c4nccs4)c3n2)CC1`, the figures for the IC50 in assay [1] and in assay [2] were below 3 µM and above 10 µM, respectively.

Consider `CN(C)S(=O)(=O)c1cn(-c2nccs2)c2nc(N3CCNCC3)ccc2c1=O`, for which the IC50 in assay [1] and in assay [2] was 3 to 10 µM throughout.

Consider `CC1CCCN1c1cnc2c(=O)c(C(=O)O)cn(-c3nccs3)c2n1` (centres unmarked), for which the figures for the IC50 in assay [1] and in assay [2] were 3 to 10 µM and above 10 µM, respectively.

As for `O=c1c(S(=O)(=O)N2CCCCC2)cn(-c2nccs2)c2nc(N3CCC(O)C3)ccc12` (centres unmarked), the IC50 in assay [1] was below 3 µM; in assay [2], above 10 µM.

Regarding `CN(C)S(=O)(=O)c1cn(-c2nccs2)c2nc(N3CCN(c4ccccn4)CC3)ccc2c1=O`, the IC50 in assay [1] and in assay [2] was above 10 µM throughout.

For `CC(C)(C)OC(=O)N1CCN(c2cnc3c(=O)c(C(=O)O)cn(-c4nccs4)c3n2)CC1`, the IC50 in assay [1] and in assay [2] was above 10 µM in each case.

Turning to `O=c1c(S(=O)(=O)N2CCCCC2)cn(-c2nccs2)c2nc(N3CCOCC3)ccc12`, the half-maximal inhibitory concentration (IC50) in assay [1] was 3 to 10 µM; in assay [2], above 10 µM.

Turning to `N[C@@H]1CCN(c2cnc3c(=O)c(C(=O)O)cn(-c4nccs4)c3n2)C1`, the IC50 in assay [1] and in assay [2] was above 10 µM throughout.

As for `COC[C@H]1CCCN1c1ccc2c(=O)c(S(=O)(=O)N3CCCCC3)cn(-c3nccs3)c2n1`, the IC50 is 3 to 10 µM in assay [1] and above 10 µM in assay [2].

Take `O=C(O)c1cn(-c2nccs2)c2nc(N3CCNCC3)cnc2c1=O`: the IC50 in assay [1] and in assay [2] was above 10 µM throughout.

As to `C[C@@H]1CN(c2ccc3c(=O)c(S(=O)(=O)N(C)C)cn(-c4nccs4)c3n2)CCN1`, the 50% inhibitory concentration (IC50) in assay [1] was 3 to 10 µM; in assay [2] it was above 10 µM.

In the case of `CN(C)[C@@H]1CCN(c2cnc3c(=O)c(C(=O)O)cn(-c4nccs4)c3n2)C1`, the concentration for half-maximal inhibition (IC50) in assay [1] and in assay [2] was above 10 µM in each case.

`O=c1c(S(=O)(=O)N2CCCCC2)cn(-c2nccs2)c2nc(N3CCNCC3)ccc12`: the IC50 in assay [1] and in assay [2] was below 3 µM throughout.

For the compound `CN[C@H]1CN(c2cnc3c(=O)c(C(=O)O)cn(-c4nccs4)c3n2)C[C@@H]1OC`, the IC50 in assay [1] and in assay [2] was above 10 µM each time.

With `COC[C@@H]1CCCN1c1ccc2c(=O)c(S(=O)(=O)N3CCCCC3)cn(-c3nccs3)c2n1`, the results for the IC50 in assay [1] and in assay [2] were 3 to 10 µM and above 10 µM, respectively.

Take `N[C@@H]1CCN(c2ccc3c(=O)c(S(=O)(=O)N4CCCCC4)cn(-c4nccs4)c3n2)C1`: the IC50 in assay [1] and in assay [2] was below 3 µM throughout.

With `CN[C@H]1CN(c2ccc3c(=O)c(S(=O)(=O)N4CCCCC4)cn(-c4nccs4)c3n2)C[C@@H]1OC`, the IC50 in assay [1] and in assay [2] was below 3 µM in each case.

As to `CN[C@H]1CN(c2ccc3c(=O)c(S(=O)(=O)N(C)C)cn(-c4nccs4)c3n2)C[C@@H]1OC`, the IC50 in assay [1] and in assay [2] was below 3 µM each time.

Regarding `CCN(CC)C1CCN(c2cnc3c(=O)c(C(=O)O)cn(-c4nccs4)c3n2)C1` (centres unmarked), the IC50 in assay [1] and in assay [2] was above 10 µM each time.

`O=c1c(S(=O)(=O)N2CCCCC2)cn(-c2nccs2)c2nc(N3CCN(c4cccnc4)CC3)ccc12`: the values for the IC50 in assay [1] and in assay [2] were below 3 µM and 3 to 10 µM, respectively.

On to `COC[C@@H]1CCCN1c1cnc2c(=O)c(C(=O)O)cn(-c3nccs3)c2n1`, for which the 50% inhibitory concentration (IC50) in assay [1] and in assay [2] was above 10 µM in each case.

For `COC[C@H]1CCCN1c1cnc2c(=O)c(C(=O)O)cn(-c3nccs3)c2n1`, the half-maximal inhibitory concentration (IC50) in assay [1] and in assay [2] was above 10 µM throughout.

Consider `O=c1c(S(=O)(=O)N2CCCCC2)cn(-c2nccs2)c2nc(N3CCCC3)ccc12`, for which the IC50 is below 3 µM in assay [1] and above 10 µM in assay [2].

Regarding `O=c1c(S(=O)(=O)N2CCCCC2)cn(-c2nccs2)c2nc(N3CCC(N4CCCC4)CC3)ccc12`, the 50% inhibitory concentration (IC50) in assay [1] and in assay [2] was below 3 µM throughout.

As to `CN(C)S(=O)(=O)c1cn(-c2nccs2)c2nc(N3CCOCC3)ccc2c1=O`, the IC50 in assay [1] and in assay [2] was above 10 µM each time.

Turning to `CN(C)S(=O)(=O)c1cn(-c2nccs2)c2nc(N3CCC(N4CCCC4)CC3)ccc2c1=O`, the IC50 in assay [1] and in assay [2] was 3 to 10 µM throughout.

Regarding `COC1CCN(c2cnc3c(=O)c(C(=O)O)cn(-c4nccs4)c3n2)C1` (centres unmarked), the IC50 in assay [1] and in assay [2] was above 10 µM each time.

Consider `O=C(O)c1cn(-c2nccs2)c2nc(N3CCOCC3)cnc2c1=O`, for which the IC50 in assay [1] and in assay [2] was above 10 µM each time.

Take `CN(C)S(=O)(=O)c1cn(-c2nccs2)c2nc(N3CCN(C4CCCCC4)CC3)ccc2c1=O`: the IC50 in assay [1] was below 3 µM; in assay [2] it was 3 to 10 µM.

Regarding `C[C@@H]1CN(c2ccc3c(=O)c(S(=O)(=O)N(C)C)cn(-c4nccs4)c3n2)C[C@H](C)N1`, the IC50 in assay [1] and in assay [2] was 3 to 10 µM throughout.

Turning to `CN1CCN(c2cnc3c(=O)c(C(=O)O)cn(-c4nccs4)c3n2)CC1`, the IC50 in assay [1] and in assay [2] was above 10 µM each time.

For `O=c1c(S(=O)(=O)N2CCCCC2)cn(-c2nccs2)c2nc(N3CCN(C4CCCCC4)CC3)ccc12`, the 50% inhibitory concentration (IC50) in assay [1] and in assay [2] was below 3 µM each time.

In the case of `O=C(O)c1cn(-c2nccs2)c2nc(N3CCCC3)cnc2c1=O`, the IC50 in assay [1] and in assay [2] was 3 to 10 µM throughout.

With `CCN1CCN(c2cnc3c(=O)c(C(=O)O)cn(-c4nccs4)c3n2)CC1`, the concentration for half-maximal inhibition (IC50) in assay [1] and in assay [2] was above 10 µM each time.

`O=c1c(S(=O)(=O)N2CCCCC2)cn(-c2nccs2)c2nc(N3CCN(c4ccc(C(F)(F)F)cc4)CC3)ccc12`: the IC50 in assay [1] was below 3 µM.

`C[C@@H]1CN(c2cnc3c(=O)c(C(=O)O)cn(-c4nccs4)c3n2)CCN1`: the concentration for half-maximal inhibition (IC50) in assay [1] and in assay [2] was above 10 µM each time.

On to `C[C@@H]1CN(c2cnc3c(=O)c(C(=O)O)cn(-c4nccs4)c3n2)C[C@H](C)N1`, for which the IC50 in assay [1] and in assay [2] was above 10 µM throughout.

In general, IC50 refers to the concentration that gives 50% inhibition. A higher IC50 goes with weaker potency in that assay.

(Values after patent US8470817B2, “Compounds and methods for treatment of cancer” (Sunesis Pharmaceuticals, Inc., priority 2009, dated 2013).)
